Source: US20070122392A1, “Propagation of undifferentiated embryonic stem cells in hyaluronic acid hydrogel” (priority 2005, published 2007)

Columns and labels:
[1] = tested on: hESCs; assay: Long-term (24 hours) hyaluronidase treatment of hESC colonies; type: cell-based, human; settings: growth medium containing hyaluronidase at all concentrations
Experimental: (§1) Cell-gel constructs were cultivated in hESC grwoth medium containing 100 ng/ml bFGF or MEF conditioned media as previously described^1 Briefly, hESCs growth medium was incubated on inactivated MEF for 24 hours and collected and filtrated. bFGF (4 ng/ml) was added before use. Constructs were incubated up to 40 days. To release encapsulated hESCs, HA constructs were incubated for 24 h in hESC growth medium containing 100, 500, 1000 or 2000 U/ml hyaluronidase (Sigma, St. Louis, Mo.). For re-culture, cells were collected, centrifuged, washed three times with PBS to remove any hydrogel residues, re-suspended in growth medium, and cultured on MEF coated dishes using standard methods^22,23. For EB formation, hESCs were cultivated in non-adherent Petri-dishes.

[2] = tested on: hESCs; assay: Karyotyping analysis; type: cell-based, human; settings: hESCs on MEFs (H9 p22; H13 p25) treated with hyaluronidase 2000 U/ml for 24 h
Experimental: Karyotyping analysis. Cells were prepared and analyzed as previously described and recommended^30. Karyotyping analysis was performed by Dana Faber /Harvard Cancer Research Center, Cytogenetics Laboratory, Cambridge, Mass.

[3] = Hyaluronidase degradation of HA hydrogel and release of hESCs
Experimental: as §1

hyaluronidase
hESC colony morphology and viability [1]: preserved their normal morphology with no apparent loss of viability
karyotype [2]: normal 46XX karyotyping
degradation of the HA hydrogel ([3]; 2000 U/ml hyaluronidase in growth medium): complete degradation
state of hydrogel and hESCs ([3]; 2000 U/ml hyaluronidase in growth medium, after 18 hr): small particles of hydrogels remained that trapped hESCs
release of hESC colonies from the hydrogel ([3]; 2000 U/ml hyaluronidase in growth medium, after 24 hr): completely released
degradation of HA hydrogels ([3]; hyaluronidase concentrations of <1000 U/ml, 24 hr): only partial degradation
